Series [1] in a line: Bioavailability (statement). As to conditions: in vivo.
For series [2], the system named is platelet aggregation in PRP of type-2 diabetic patients. Kind of series: Platelet aggregation in citrate-anticoagulated PRP, light transmission aggregometry (LTA). As to conditions: for ADP 5 late platelet aggregation (mean ± SD) / ADP 5 max platelet aggregation (mean ± SD): ADP 5 μM; for ADP 5 late platelet aggregation (mean ± SD) / ADP 20 late platelet aggregation (mean ± SD) / U-46619 late platelet aggregation (mean ± SD) / AA late platelet aggregation (mean ± SD) / COLL late platelet aggregation (mean ± SD): late aggregation at 6 minutes; for ADP 5 late platelet aggregation (mean ± SD) / ADP 5 max platelet aggregation (mean ± SD) / ADP 20 late platelet aggregation (mean ± SD) / ADP 20 max platelet aggregation (mean ± SD) / U-46619 late platelet aggregation (mean ± SD) / U-46619 max platelet aggregation (mean ± SD) / AA late platelet aggregation (mean ± SD) / COLL late platelet aggregation (mean ± SD) / COLL max platelet aggregation (mean ± SD): PRP ± 100 nM Compound 3 in vitro; for ADP 5 max platelet aggregation (mean ± SD) / ADP 20 max platelet aggregation (mean ± SD) / U-46619 max platelet aggregation (mean ± SD) / AA max platelet aggregation (mean ± SD) / COLL max platelet aggregation (mean ± SD): maximal aggregation; for ADP 20 late platelet aggregation (mean ± SD) / ADP 20 max platelet aggregation (mean ± SD): ADP 20 μM; for U-46619 late platelet aggregation (mean ± SD) / U-46619 max platelet aggregation (mean ± SD): U-46619 7 uM; for AA late platelet aggregation (mean ± SD) / AA max platelet aggregation (mean ± SD): arachidonic acid 1 mM; for AA max platelet aggregation (mean ± SD): PRP ± 100 nM Compound 3 in vitro 10 min 37°C; for COLL late platelet aggregation (mean ± SD) / COLL max platelet aggregation (mean ± SD): collagen 3 ug/ml. Format: cell-based, human. The protocol: Patient population: Ten patients affected by type-2 diabetes mellitus and CAD (coronary artery disease), on chronic daily treatment with 81 mg aspirin (enteric coated acetylsalicylic acid, Cardioaspirin, Bayer, Germany) are switched to clopidogrel (75 mg/day) monotherapy for 7-10 days prior to study. Pharmacodynamic assessments are performed while on aspirin (81 mg) monotherapy and clopidogrel (75 mg) monotherapy.
Blood sampling with 19-gauge needle or larger without the use of tourniquet. The first two ml of blood sampled was discarded. The venous blood samples are drawn into tri-sodium citrate filled tubes (BD Vacutainer 0.109 M. Ref. 363048) for the LTA. All tri-sodium citrate used to anticoagulate a blood sample remains in the plasma phase since it was not taken up by platelets, erythrocytes and leukocytes. Citrate plasma concentration and the resulting free plasma Ca2+ needed for platelet aggregation is directly determined by the individual haematocrit.
Platelet-rich plasma (PRP) is prepared by centrifugation at 120×g for 10 min at room temperature. Autologous platelet-poor plasma (PPP) is prepared by centrifugation at 2300×g for 15 min at room temperature. The PRP platelet count is adjusted to 250.000/ul by the autologous PPP. Stability for the platelet aggregation test is 2 hours at room temperature. Platelet aggregation is performed using LTA [2-5]. Blood is collected in citrated tubes. Citrate concentrations are adjusted according to the individual haematocrit levels according to prior LTA studies using Evolva compound. LTA is assessed using PRP by the turbidimetric method in a 2-channel aggregometer (Chrono-Log 490 Model, Chrono-Log Corp., Havertown) according to the instructions of the manufacturer. Light transmission is adjusted to 0% with the PRP and to 100% for the PPP for each measurement. Curves are recorded for 6 minutes. Platelet aggregation is determined as the maximal percent change in light transmittance from baseline using PPP as a reference as well as late platelet aggregation at 6 minutes. Platelet agonists include U-46619 (7 uM), arachidonic acid (1 mM), collagen (3 ug/ml) and ADP (20 μM and 5 μM). Pharmacodynamic testing is performed following 10 min in vitro incubation at 37° C. of PRP with 100 nM Compound 3 and without 100 nM Compound 3 (placebo).
Total of 10 LTA analysis per patient at each time point; total 2 time points=20 assessments. Table 1 and FIG. 6B compare aspirin vs. aspirin+Compound 3, Table 2 and FIG. 7A compare clopidogrel vs. clopidigrel+Comppound 3, and Table 3 and FIG. 7B compare aspirin+Compound 3 vs. clopidogrel+Comound 3.

The subject of series [3] is human coronary artery smooth muscle cells. The series is described as follows: Human coronary artery smooth muscle cell proliferation (WST-1). The format is cell-based. The protocol:
Human coronary artery SMC is cultured in SmGM2 kit medium. At 80% confluence, the SMCs are trypsinized and resuspended in either DMEM supplemented with 2% FCS (“low serum media”), or in SmGM2 kit medium containing 5% FCS, 2 ng/ml FGF, 0.5 ng/ml EGF, 5 μg/ml insulin (“growth factor media”). Subsequently, 5000 cells in 200 μL are added to each well in a 96-well plate and left to adhere overnight. Either vehicle or Compound 3 (50 nM, 500 nM, 5 μM) is added to the wells 1 h before U 46619 at different concentrations (0.1 nM to 10 μM) and incubated for another 48 h. All experiments are repeated 3-5 times for each experimental condition.
Cell proliferation is evaluated using WST-1 reagent according to the manufacturer's instructions. In brief, after replacement of phenol red containing media by 200 μL transparent serum-supplemented DMEM, 10 μL of diluted WST-1 reagent is added to each well at the end of the 48 h incubation period. After 1 h incubation at 37° C., the absorbance of the formazan dye formed is measured at 440 nm using a microplate reader.
All results are expressed as mean±SE. Statistically significant differences are determined by a one-way analysis of variances, followed by Holm-Sidak post hoc test, for multiple comparisons, using Sigma Stat software. A P value of less than 0.05 is considered significant.
(In general: Tetrazolium assays rely on reduction of a dye to a coloured formazan, in cell work by metabolically active cells.)

Take `O=C(O)CC/C=C\C[C@@H]1CO[C@H](c2ccccc2Cl)O[C@@H]1c1ccccc1O` (single isomer, unassigned) [Compound 2]: the solubility result in “Solubility (statement)” was “poor solubility”. Besides, the bioavailability result in series [1] was “poor”.

Take `CC(=O)Oc1ccccc1C(=O)O` [ASA, acetylsalicylic acid]: in series [2], the “ADP 5 late platelet aggregation (mean ± SD)” value came to 46.3 ± 15%, the “ADP 5 max platelet aggregation (mean ± SD)” value worked out at 52.6 ± 12%, the “ADP 20 late platelet aggregation (mean ± SD)” value amounted to 72 ± 6% and the “ADP 20 max platelet aggregation (mean ± SD)” value came to 74.3 ± 6%. In series [2], the “U-46619 late platelet aggregation (mean ± SD)” value is given as 74.9 ± 4.6%, the “U-46619 max platelet aggregation (mean ± SD)” value worked out at 77 ± 5.2%, the “AA late platelet aggregation (mean ± SD)” value is 8.5 ± 23% and the “AA max platelet aggregation (mean ± SD)” value turned out to be 9.4 ± 22.7%. Also, in series [2], the “COLL late platelet aggregation (mean ± SD)” value amounted to 59.6 ± 17.2% and the “COLL max platelet aggregation (mean ± SD)” value turned out to be 61.4 ± 17.6%.

In the case of `COC(=O)[C@H](c1ccccc1Cl)N1CCc2sccc2C1` [CLOP, clopidogrel], in series [2], the “ADP 5 late platelet aggregation (mean ± SD)” value was found to be 19.7 ± 21.9%, the “ADP 5 max platelet aggregation (mean ± SD)” value is 32.8 ± 17.2%, the “ADP 20 late platelet aggregation (mean ± SD)” value is 44.6 ± 18.9% and the “ADP 20 max platelet aggregation (mean ± SD)” value turned out to be 54.8 ± 13.3%. For the same compound, in series [2], the “U-46619 late platelet aggregation (mean ± SD)” value is given as 68.8 ± 13.8%, the “U-46619 max platelet aggregation (mean ± SD)” value is 71.6 ± 11.6%, the “AA late platelet aggregation (mean ± SD)” value came to 47.6 ± 28.2% and the “AA max platelet aggregation (mean ± SD)” value is 49.7 ± 28.2%. Further, in series [2], the “COLL late platelet aggregation (mean ± SD)” value was 70.5 ± 10.5% and the “COLL max platelet aggregation (mean ± SD)” value is 72.6 ± 10.2%.

As to `CCCCC[C@H](O)/C=C/[C@@H]1[C@@H](C/C=C\CCCC(=O)O)[C@H]2CO[C@@H]1C2` [Compound U46619], the “concentration of maximal response (cell number, WST-1)” value in series [3] (growth factor media) was determined as 1 nM. The “cell number assessed by WST-1” value in series [3] (growth factor media, U46619 0.1 nM to 10 μM, 48 h) is recorded as “bell-shaped concentration-dependent increase”. In addition, in series [3] (growth factor media, U46619 at 0.1 μM and higher), the “absorbance vs. vehicle-treated cells (WST-1)” value is listed as “does not significantly differ”. Also, in series [3] (low serum media (2% FCS)), the SMC proliferation entry was “did not significantly alter”.
